Reference: patent publication US6890727B2, “Diagnostic assay for Alzheimer's disease: assessment of Aβ abnormalities” (The General Hospital Corporation, priority 1994, dated 2005)
Like-named read-outs stand apart in the source and are kept apart here. One block for each compound: values may come before it.

Key:
[1] = 65Zn2+ binding to immobilized peptide (dot-blot, Scatchard competition analysis); settings: for zinc binding (in words): dot-blot or blot of tryptic digest probed with ^65Zn^2+
Experimental: ^65Zn^2+ Binding Studies—Dissolved peptides (1.2 nMol, unless other wise stated) were dot-blotted onto polyvinylidene difluoride membrane (0.2-μm pore size; Pierce Chemical Co.), washed twice with chelating buffer (200 μl×100 mM NaCl, 20 mM Tris-HCl, 1 mM EDTA, pH 7.4), then five times with blocking buffer (200 μl×100 mM NaCl, 20 mM Tris-HCl, 1 mM MnCl2, pH 7.4), and then incubated (60 min, 20° C.) with ^65Zn (unless otherwise stated 130,000 cpm, […] ^65ZnCl2 in 200 μl of blocking buffer±competing metal ion chloride). The dot-blot was then washed with blocking buffer (5×200 μl), the dot excised, placed in a test tube, and assayed by γ-counting (11% efficiency). The equilibration volume for stoichiometry estimates was regarded as 6×200 μl. The 214 nm UV absorbance of the unbound flow-through was assayed to determine the total amount of peptide remaining bound onto the membrane. […] To alter the pH, the ^65Zn incubation was carried out in the presence of 100 mM buffer: MOPS (pH 6.5-7.0), MES (pH 5.0-6.0), acetate (pH 3.5-4.5). The dot-blot apparatus was washed with detergent and EDTA (50 mM) then rinsed and siliconized between use.
Aliquots of Aβ were incubated (60 min) with ^65Zn^2+ in the presence of varying concentrations of unlabeled Zn^2+ (0.01-50 μM total). Values shown are means±S.D., n≧3. […] (FIG. 1b) depicts specificity of the Zn^2+ binding site for various metals. Aβ was incubated (60 min) with ^65 Zn^2+ (157 nM, 138,000 cpm) and competing unlabeled metal ions (50 μM total). […] Percent binding of total counts ^65Zn^2+/min added is corrected for the amounts (in nanomoles) of peptides adhering to the membrane. […] 157 nM ^65Zn (138,000 cpm) is used in this experiment to probe immobilized peptide (1.6 nmol).

Aβ = target: T1, Aβ (Homo sapiens, UniProt P05067); experiment: G50 gel filtration chromatography of Aβ in presence of metal ions or EDTA; settings: metal ion 25 μM
T1 construct: purchased Sigma; Bachem (results also replicated with peptide from the Keck Laboratory, Yale); host or cells: chemical synthesis
T1 sequence (P05067 672-711): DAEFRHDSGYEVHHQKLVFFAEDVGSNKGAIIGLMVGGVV
Experimental: Aβ was stored in aliquots of 0.52 mg/ml in water at −20° C., then kept at 4° C. when thawed. Reagents were mixed without vortex mixing. The incubated Aβ was directly applied to a G50 SF (Pharmacia, Uppsala, Sweden) column (Bio-Rad Econo-Column, 30×0.7 cm) pre-equilibrated with metal salt solution or EDTA (50 μM) in TBS at 20° C. and eluted at 8 ml/h (Wiz peristaltic pump, Isco, Lincoln, Nebr.). Absorbance was measured at 254 and 214 nm (Type 6 optical unit, Isco). The amount of Aβ eluting at various peaks was estimated from the area under the curve. […] Because the sample eluted in a volume of approximately 15 ml, the average concentration of the peptide on the column was 0.8 μM.
To study the effects of protein blocking upon adsorption of β to the chromatography column, a Sephadex G50 SF column which had been characterized previously for Aβ behavior was eluted with 3% bovine serum albumin (BSA) in TBS (50 ml) and equilibrated with non-BSA-containing buffer, subsequent to repeating the Aβ experiments.
The elution points of molecular mass standards and relative assignments of Aβ peak elutions are indicated. Mass standards were blue dextran (2×10^6 kDa, V0=void volume), BSA (66 kDa), carbonic anhydrase (29 kDa), cytochrome c (12.4 kDa), and aprotinin (6.5 kDa). The mass of Aβ is 4.3 kDa. […] Data for experiments performed in the presence of copper were taken from 214 nm readings and corrected for comparison.

[2] = 65Zn2+ binding to immobilized peptide (dot-blot, Scatchard competition analysis); settings: 74 nM ^65Zn^2+, corrected for peptide on membrane
trypsin = experiment: Tryptic digestion of Aβ after incubation with Zn2+; assay type: biochemical; settings: increasing zinc concentrations
Experimental: Tryptic Digestion of Aβ-Aβ1-40 (13.9 μg) was incubated with Zn^2+ ([…] in blocking buffer, 1 h, 37° C.) and then digested with trypsin (12 ng, 3 h, 37° C.). The reaction was stopped by adding SDS sample buffer containing phenylmethylsulfonyl fluoride (1 mM), boiling the samples (5 min), and applying the samples to Tris/Tricine gel electrophoresis and transfer. The blot was washed with EDTA, Coomassie-stained, incubated with ^65Zn^2+, individual bands were excised, assayed for ^65Zn^2+ binding, and N-terminal sequenced to confirm the identity of the digestion products. The effects of Zn^2+ (up to 100 μM in TBS) on the activity of trypsin, itself, were assayed by assay of Z-Arg-amido-4-methylcoumarin (Sigma) fluorescent cleavage product and determined to be negligible.
(FIG. 4a) depicts a blot of tryptic digests of Aβ (13.9 μg) after incubation with increasing concentrations of zinc (lane labels, in micromolar), stained by Coomassie Blue. […] The migration of the low molecular size markers (STD) are indicated (in kilodaltons) on the right. (FIG. 4b) depicts ^65Zn^2+ binding to Aβ tryptic digestion products. The blot in 4a was incubated with ^65Zn^2+, the visible bands excised, and the bound counts for each band determined.

[3] = not given; remark: listed apart in the source
[4] = Zinc-induced tinctorial amyloid formation (Congo Red, polarized light); assay type: physicochemical; settings: Congo Red
Experimental: FIGS. 8a and 8b are photographs showing zinc-induced tinctorial amyloid formation. […] The particle diameter is 40μ. […] The experiment was repeated with EDTA (50 μM) substituted for Zn^2+ and yielded no visible material.
The particle diameter is 40μ. […] The experiment was repeated with EDTA (50 μM) substituted for Zn^2+ and yielded no visible material.

- zinc binding (in words) [1]: unable to bind zinc
Compound: 25-35: Aβ fragment covering a region of the carboxyl terminus, residues 25-35 (GSNKGAIIGLM; Amyloid-beta protein 40; UniProt P05067 696-706, looked up, fragment)

Compound: [Ag+2] [Ag^2+]
- reduction in eluted peptide (Aβ): 60%

Compound: [Al+3] [Al^3+]
- total Zn^2+ concentration with similar or comparable effect on Aβ chromatography (Aβ): ~3 µM

Compound: [Ba+2] [Ba^2+]
- reduction in eluted peptide (Aβ): 60%

Compound: [Ca+2] [Ca^2+]
- reduction in eluted peptide (Aβ): 60%

Compound: [Co+2] [Co^2+]
- total Zn^2+ concentration with similar or comparable effect on Aβ chromatography (Aβ): ~10 µM

Compound: [Cu+2] [Cu^2+, copper]
- effect on eluted Aβ species (monomer, dimer, polymer) (Aβ): dramatic increase in Aβ dimerization

Compound: [Fe+2] [Fe^2+]
- total Zn^2+ concentration with similar or comparable effect on Aβ chromatography (Aβ): ~10 µM

Compound: [Mg+2] [Mg^2+]
- reduction in eluted peptide (Aβ): 60%

Compound: [Ni+2] [Ni^2+]
- total Zn^2+ concentration with similar or comparable effect on Aβ chromatography (Aβ): ~10 µM

Compound: [Pb+2] [Pb^2+]
- effect on eluted Aβ species (monomer, dimer, polymer) (Aβ): most strongly promotes the elution of the monomeric peptide, abolishing high order polymers
- total Zn^2+ concentration with similar or comparable effect on Aβ chromatography (Aβ): ~0.4 µM

- abolition of ^65Zn^2+ binding to Aβ ([1]; Tris 150 mM): ≈ 50%
- abolition of ^65Zn^2+ binding to Aβ ([1]; Tris 500 mM): ≈ 95%
Compound: NC(CO)(CO)CO [Tris]

- ^65Zn^2+ binding compared with Aβ1-40 [2]: 30 % of Bmax
- zinc binding (in words) [1]: clearly binds zinc
Compound: Aβ1-28: fragment of Aβ, residues 1-28

- zinc binding (in words) [1]: binds zinc
Compound: Aβ6-40: 3.6 kDa tryptic digestion product of Aβ1-40
- effect of zinc on rate of tryptic digestion of the peptide (trypsin): is inhibited by the presence of zinc

- zinc binding (in words) [1]: does not bind zinc
Compound: Aβ17-40: 2.1 kDa tryptic digestion product of Aβ1-40, equivalent to post-secretase carboxyl-terminal product (LVFFAEDVGSNKGAIIGLMVGGVV; Amyloid-beta protein 40; UniProt P05067 688-711, looked up, fragment)
- effect of zinc on rate of tryptic digestion of the peptide (trypsin): is not inhibited by increasing zinc concentrations

- zinc binding (in words) [1]: does not interfere with ^65Zn^2+ binding
Compound: gln11: Aβ1-28 where residue 11 is glutamine (DAEFRHDSGYQVHHQKLVFFAEDVGSNK; Amyloid-beta protein 40; UniProt P05067 672-699, looked up, variant E11Q)

Compound: rat Aβ1-40: rat/mouse species of Aβ1-40; Arg→Gly, Tyr→Phe, His→Arg at positions 5, 10 and 13 (DAEFGHDSGFEVRHQKLVFFAEDVGSNKGAIIGLMVGGVV; Amyloid-beta protein 40; UniProt P08592 672-711, looked up)
- peptide aggregated into >0.2μ particles (EDTA, higher peptide concentrations): ≈ 15%
- peptide aggregated into >0.2μ particles (EDTA, peptide 0.8 μM): no detectable aggregation
- peptide aggregated into >0.2μ particles (Zn^2+ 25 μM, peptide 0.8 μM): no aggregation
- peptide aggregated into >0.2μ particles (Zn^2+ 25 μM, peptide 4 μM): 25%
- zinc concentration at which aggregation was observed (peptide 1.6 μM): 25 µM
- zinc concentration up to which the peptide remains stable (peptide 1.6 μM): up to 10 μM
- proportion of particles >0.1μ ([3]; EDTA, peptide 1.6 μM): 36%
- proportion of particles >0.22μ ([3]; EDTA, peptide 1.6 μM): 27%
- proportion of particles >0.65μ ([3]; EDTA, peptide 1.6 μM): 25%
- increase of proportion of >0.1μ particles following incubation with Zn^2+ ([3]; Zn^2+ 25 μM vs EDTA): 20%
- increase of proportion of >0.22μ particles following incubation with Zn^2+ ([3]; Zn^2+ 25 μM vs EDTA): 30%
- proportion of particles >0.65μ ([3]; Zn^2+ 25 μM, peptide 1.6 μM): increased only slightly
- Zn^2+ concentration inducing amyloid by tinctorial criteria [4]: ≥ 10 µM
